Laboratory results from ChEMBL document CHEMBL1201862, “PubChem BioAssay data set” (2004).
Calls of active or inactive are those of the source.

Legend:
[1] = DRD BJ cell killing, Ras synthetic lethality – DRD BJ fibroblasts, HRASV12, dry powder, dose response (AID 493049); type: functional, cell-based
[2] = BJeHLT cell viability loss – BJeHLT cells, dry powder, counter-screen for Ras selective lethality project, dose response (AID 493052); type: functional, cell-based; settings: Homo sapiens
[3] = BJeH cell viability loss – BJeH cells, dry powder, counter-screen for Ras selective lethality project, dose response (AID 493054); type: functional, cell-based
[4] = HRAS-V12 fibroblast viability reduction – cell-based, Alamar Blue, dry powder, Ras selective lethality project, primary screen (AID 493045); type: functional; settings: BJeLR
[5] = molecular target: Protein Rev (Human immunodeficiency virus type 1 group M subtype B (isolate HXB2)(HIV-1), UniProt P04618); test: blockers of HIV Rev/RRE RNA complex – biochemical, fluorescence polarization, HIV-1, dose response (AID 434976); design: species or system Human immunodeficiency virus 1
Sequence of Protein Rev (P04618 whole entry): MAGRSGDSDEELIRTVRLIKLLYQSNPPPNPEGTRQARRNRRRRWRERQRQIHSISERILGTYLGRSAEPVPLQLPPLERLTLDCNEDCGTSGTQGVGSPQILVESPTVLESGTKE

[6] = tested on: Vero; test: viability of Vero cells under compound – cytotoxicity control for flavivirus capping enzyme inhibitors (AID 588742); type: functional; settings: Chlorocebus sabaeus
[7] = molecular target: Female germline-specific tumor suppressor gld-1 (Caenorhabditis elegans, UniProt Q17339); test: blockers of GLD-1/TGE RNA complex formation – biochemical, fluorescence polarization, C. elegans, dose response (AID 2802);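 also: fluorescence polarization of labeled TGE RNA bound by purified gld-1 protein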
Sequence of Female germline-specific tumor suppressor gld-1 (Q17339 whole entry): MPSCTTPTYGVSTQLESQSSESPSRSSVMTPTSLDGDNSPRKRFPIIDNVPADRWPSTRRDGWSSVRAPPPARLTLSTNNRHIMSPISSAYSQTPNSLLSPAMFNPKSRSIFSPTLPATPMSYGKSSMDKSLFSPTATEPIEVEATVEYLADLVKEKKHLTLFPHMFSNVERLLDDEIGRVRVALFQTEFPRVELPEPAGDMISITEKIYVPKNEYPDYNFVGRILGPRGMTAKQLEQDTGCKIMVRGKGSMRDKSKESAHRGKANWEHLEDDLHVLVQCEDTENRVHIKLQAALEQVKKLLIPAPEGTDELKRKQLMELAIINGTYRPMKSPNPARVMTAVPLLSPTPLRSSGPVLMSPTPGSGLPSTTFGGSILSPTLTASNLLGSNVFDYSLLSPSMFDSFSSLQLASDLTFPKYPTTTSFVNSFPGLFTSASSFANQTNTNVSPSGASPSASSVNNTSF

[8] = molecular target: Genome polyprotein (dengue virus type 2, UniProt P29990); test: flavivirus cap methylation enzyme inhibition – biochemical, confirmation dose response, primary screen (AID 588689); type: functional
Sequence of Genome polyprotein (P29990 2492-3391 limits assumed): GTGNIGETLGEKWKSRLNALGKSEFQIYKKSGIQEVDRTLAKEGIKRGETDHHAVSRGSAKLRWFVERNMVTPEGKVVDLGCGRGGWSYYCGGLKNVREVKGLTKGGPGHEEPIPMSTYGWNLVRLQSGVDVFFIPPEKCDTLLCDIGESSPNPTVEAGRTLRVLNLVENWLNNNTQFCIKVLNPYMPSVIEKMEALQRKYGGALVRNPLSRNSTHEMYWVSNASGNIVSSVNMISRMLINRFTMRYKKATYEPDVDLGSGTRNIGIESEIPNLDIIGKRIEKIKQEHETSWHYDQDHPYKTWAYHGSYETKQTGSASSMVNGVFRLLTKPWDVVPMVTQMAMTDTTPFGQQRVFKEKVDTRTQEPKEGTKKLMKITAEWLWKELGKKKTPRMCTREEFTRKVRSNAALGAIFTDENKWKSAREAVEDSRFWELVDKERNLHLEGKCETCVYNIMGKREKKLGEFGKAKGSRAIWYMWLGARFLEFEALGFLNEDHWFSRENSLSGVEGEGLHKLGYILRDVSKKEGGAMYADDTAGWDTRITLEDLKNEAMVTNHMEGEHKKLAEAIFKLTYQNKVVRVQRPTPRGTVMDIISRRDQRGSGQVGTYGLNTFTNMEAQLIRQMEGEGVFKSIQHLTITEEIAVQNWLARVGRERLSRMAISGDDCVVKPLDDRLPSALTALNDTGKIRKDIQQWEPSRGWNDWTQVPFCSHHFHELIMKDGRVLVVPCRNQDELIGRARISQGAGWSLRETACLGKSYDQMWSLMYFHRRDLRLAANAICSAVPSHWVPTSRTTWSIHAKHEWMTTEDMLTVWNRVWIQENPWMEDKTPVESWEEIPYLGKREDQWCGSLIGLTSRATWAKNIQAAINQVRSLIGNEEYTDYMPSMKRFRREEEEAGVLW

[9] = protection from phage-mediated lysis, alamar blue read-out – E. coli UTI89, K1F phage, bacterial capsule biogenesis inhibitors (AID 488966); type: functional
[10] = cells; type: functional
[11] = molecular target: T1, Beta-galactosidase (Escherichia coli, UniProt Q8VNN2); type: functional
T1 sequence (Q8VNN2 whole entry): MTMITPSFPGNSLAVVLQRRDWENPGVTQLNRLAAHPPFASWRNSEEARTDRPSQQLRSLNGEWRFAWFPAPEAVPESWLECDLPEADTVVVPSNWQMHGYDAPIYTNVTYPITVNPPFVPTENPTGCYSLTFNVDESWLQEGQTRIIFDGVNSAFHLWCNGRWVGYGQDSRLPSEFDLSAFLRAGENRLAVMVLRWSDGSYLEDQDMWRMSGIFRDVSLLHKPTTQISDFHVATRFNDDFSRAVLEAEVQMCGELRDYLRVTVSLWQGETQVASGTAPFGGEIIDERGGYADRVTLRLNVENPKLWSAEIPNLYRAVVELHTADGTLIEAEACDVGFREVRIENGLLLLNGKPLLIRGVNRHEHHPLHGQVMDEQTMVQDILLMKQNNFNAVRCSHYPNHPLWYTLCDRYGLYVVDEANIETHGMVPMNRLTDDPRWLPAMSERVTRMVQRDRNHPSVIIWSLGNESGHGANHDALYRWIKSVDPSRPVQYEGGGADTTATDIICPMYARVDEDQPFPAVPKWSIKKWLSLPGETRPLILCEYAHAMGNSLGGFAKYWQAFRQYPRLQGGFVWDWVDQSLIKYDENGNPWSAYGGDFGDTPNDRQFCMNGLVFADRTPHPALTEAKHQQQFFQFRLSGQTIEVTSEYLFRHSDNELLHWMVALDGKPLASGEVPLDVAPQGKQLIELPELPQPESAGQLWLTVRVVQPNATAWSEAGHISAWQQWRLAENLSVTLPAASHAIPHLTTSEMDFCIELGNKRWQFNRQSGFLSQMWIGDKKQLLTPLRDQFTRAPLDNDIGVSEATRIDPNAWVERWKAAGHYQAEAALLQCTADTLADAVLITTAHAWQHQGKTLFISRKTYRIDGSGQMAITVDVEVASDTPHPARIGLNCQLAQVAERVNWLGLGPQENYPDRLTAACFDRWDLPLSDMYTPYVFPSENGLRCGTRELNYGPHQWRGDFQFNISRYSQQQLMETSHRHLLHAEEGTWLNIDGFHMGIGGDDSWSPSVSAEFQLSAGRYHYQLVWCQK

[12] = molecular target: T1, Beta-galactosidase; test: detection-enzyme interference by beta-gal modulators – biochemical, E. coli enzyme, set 3, artefact control for CCR6 antagonist project, dose response (AID 504712); type: functional
[13] = molecular target: T2, Kappa-type opioid receptor (Homo sapiens, UniProt P41145); type: functional
T2 sequence (P41145 whole entry): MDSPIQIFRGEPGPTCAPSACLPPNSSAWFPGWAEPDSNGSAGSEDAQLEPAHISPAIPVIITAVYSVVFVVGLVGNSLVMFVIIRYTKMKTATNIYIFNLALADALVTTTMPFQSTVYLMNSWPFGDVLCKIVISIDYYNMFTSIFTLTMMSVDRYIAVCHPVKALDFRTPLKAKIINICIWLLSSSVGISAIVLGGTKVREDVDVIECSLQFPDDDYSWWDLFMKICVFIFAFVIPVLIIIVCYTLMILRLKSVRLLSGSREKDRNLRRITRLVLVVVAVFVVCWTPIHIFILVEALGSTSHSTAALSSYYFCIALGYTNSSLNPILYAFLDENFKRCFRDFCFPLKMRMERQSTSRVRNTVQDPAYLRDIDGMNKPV

[14] = molecular target: T2, Kappa-type opioid receptor; type: functional; remark: listed apart in the source
[15] = molecular target: T3, Corticotropin-releasing factor receptor 2/Corticotropin-releasing factor-binding protein (Homo sapiens, UniProt P24387+Q13324); test: activators of CRF receptor 2 with binding protein – uHTS hits, confirmation (AID 602473); type: functional; settings: read-out: EC50_Mean
T3 sequence (Q13324 whole entry): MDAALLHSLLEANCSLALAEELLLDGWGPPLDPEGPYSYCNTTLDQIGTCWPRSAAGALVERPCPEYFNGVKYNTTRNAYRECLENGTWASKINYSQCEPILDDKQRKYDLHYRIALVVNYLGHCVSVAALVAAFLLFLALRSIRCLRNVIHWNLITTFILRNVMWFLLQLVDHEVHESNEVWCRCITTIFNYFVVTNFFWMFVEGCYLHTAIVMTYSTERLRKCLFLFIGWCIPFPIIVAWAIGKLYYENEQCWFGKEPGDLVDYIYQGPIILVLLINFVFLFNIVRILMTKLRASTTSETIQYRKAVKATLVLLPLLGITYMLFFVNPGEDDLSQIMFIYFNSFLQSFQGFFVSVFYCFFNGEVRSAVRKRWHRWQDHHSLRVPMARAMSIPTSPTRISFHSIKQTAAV
T3 sequence (P24387 whole entry): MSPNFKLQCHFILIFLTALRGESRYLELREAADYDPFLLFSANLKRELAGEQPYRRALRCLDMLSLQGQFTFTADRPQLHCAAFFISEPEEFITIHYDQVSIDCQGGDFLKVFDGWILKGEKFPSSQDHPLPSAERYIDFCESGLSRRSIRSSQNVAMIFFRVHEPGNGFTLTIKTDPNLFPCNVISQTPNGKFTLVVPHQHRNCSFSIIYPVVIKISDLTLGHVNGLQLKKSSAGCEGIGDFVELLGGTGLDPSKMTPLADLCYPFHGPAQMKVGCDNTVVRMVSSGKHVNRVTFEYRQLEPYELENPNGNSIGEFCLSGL

[16] = molecular target: Scavenger receptor class B member 1 (Mus musculus, UniProt Q61009); test: mouse SR-BI DiI-HDL uptake blockers – ldlA[mSR-BI] cells, fluorescence, cherry pick, dose response (AID 493194); type: functional, cell-based;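 also: cellular uptake of fluorescent DiI-labeled HDL measured as cell fluorescence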
[17] = alpha-synuclein stem-loop luciferase translation blockers – H4 neuroglioma cells, luminescence, confirmation (AID 1988); type: functional, cell-based
[18] = HEK-293T cell viability reduction – luminescence, B-cell screen hits, cytotoxicity control for BCR NF-kB inhibitor project, dose response (AID 489021); type: functional, cell-based;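 also: HEK-293T cells carrying an NF-kB luciferase reporter; cells exposed to compound for about 14 hours before viability readout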
[19] = luciferase reporter signal suppression in cells – H4 neuroglioma cells, luminescence, dose response (AID 1990); type: functional, cell-based
[20] = Luminescence Cell-Based Dose Response HTS to Identify Inhibitors of 5'UTR Stem-Loop Driven Prion Protein mRNA Translation in H4 Neuroglioblastoma Cells. [Related pubchem assays: 1827 (Project Summary), 1813 (Primary HTS)]; type: functional
[21] = molecular target: Glucose-6-phosphate 1-dehydrogenase (Homo sapiens, UniProt P11413); test: inhibition of Homo sapiens G6PD, dose series – biochemical, fluorescence, selectivity assay for P. falciparum G6PD inhibitor project, dose response (AID 504792); type: functional
Sequence of Glucose-6-phosphate 1-dehydrogenase (P11413 whole entry): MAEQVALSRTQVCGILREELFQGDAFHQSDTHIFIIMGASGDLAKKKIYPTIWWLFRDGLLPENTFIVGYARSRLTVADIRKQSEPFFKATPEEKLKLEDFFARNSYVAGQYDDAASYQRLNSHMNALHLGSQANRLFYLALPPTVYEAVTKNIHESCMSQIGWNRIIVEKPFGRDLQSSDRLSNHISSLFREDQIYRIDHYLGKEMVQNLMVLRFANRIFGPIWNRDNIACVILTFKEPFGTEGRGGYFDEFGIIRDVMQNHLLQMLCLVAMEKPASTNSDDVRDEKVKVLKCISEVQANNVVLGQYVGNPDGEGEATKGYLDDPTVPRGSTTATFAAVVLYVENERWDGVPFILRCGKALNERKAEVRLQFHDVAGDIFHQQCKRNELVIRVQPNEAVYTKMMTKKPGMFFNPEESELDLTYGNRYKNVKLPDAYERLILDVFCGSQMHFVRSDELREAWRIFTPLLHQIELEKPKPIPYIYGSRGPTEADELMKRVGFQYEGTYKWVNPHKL

[22] = molecular target: T4, Histone-lysine N-methyltransferase NSD2 (Homo sapiens, UniProt O96028); type: biochemical
T4 sequence (O96028 whole entry): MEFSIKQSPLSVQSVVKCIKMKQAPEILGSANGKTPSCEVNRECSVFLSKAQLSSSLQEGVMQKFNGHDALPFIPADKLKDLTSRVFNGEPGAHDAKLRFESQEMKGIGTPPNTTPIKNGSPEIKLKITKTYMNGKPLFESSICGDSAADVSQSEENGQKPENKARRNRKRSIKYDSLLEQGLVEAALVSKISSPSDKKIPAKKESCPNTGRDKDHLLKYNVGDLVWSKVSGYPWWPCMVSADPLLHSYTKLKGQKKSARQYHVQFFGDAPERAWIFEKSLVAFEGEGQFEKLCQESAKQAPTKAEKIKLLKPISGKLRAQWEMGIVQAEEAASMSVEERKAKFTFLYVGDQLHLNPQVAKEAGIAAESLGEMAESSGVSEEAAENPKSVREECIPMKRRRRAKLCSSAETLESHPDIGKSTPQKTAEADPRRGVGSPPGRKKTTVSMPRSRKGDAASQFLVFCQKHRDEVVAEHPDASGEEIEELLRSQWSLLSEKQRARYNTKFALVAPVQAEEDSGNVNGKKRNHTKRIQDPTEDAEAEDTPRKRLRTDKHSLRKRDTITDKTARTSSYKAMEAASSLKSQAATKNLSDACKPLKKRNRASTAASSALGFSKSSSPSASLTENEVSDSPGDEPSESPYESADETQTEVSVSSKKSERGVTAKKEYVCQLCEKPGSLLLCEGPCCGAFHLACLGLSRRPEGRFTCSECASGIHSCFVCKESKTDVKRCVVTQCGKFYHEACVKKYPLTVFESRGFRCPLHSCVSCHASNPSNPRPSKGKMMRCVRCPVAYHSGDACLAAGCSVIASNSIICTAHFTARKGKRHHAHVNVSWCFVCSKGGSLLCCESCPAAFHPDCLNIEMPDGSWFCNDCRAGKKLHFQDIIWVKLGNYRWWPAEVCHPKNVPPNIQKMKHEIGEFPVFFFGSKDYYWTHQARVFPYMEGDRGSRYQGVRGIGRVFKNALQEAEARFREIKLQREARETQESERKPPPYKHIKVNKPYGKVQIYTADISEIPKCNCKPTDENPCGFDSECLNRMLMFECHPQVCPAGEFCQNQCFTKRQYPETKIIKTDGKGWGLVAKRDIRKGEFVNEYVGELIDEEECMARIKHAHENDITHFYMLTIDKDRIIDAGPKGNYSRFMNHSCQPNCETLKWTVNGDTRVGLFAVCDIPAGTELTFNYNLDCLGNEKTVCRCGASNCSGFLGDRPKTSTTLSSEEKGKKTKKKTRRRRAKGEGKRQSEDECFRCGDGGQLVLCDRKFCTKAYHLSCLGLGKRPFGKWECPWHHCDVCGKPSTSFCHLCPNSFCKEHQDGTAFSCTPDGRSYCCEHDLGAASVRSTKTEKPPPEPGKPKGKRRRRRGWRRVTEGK

[23] = viability loss in HeLa cells – cytotoxicity control for MgcRacGAP inhibitor project, dose response (AID 624300); type: functional
[24] = HGIII-sPLA2 enzyme inhibition potency – biochemical, QFRET, IC50, dose response (AID 743457);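 also: green fluorescence rise as the enzyme cleaves BODIPY PC-A2 in liposomes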
[25] = molecular target: T5, Rac GTPase-activating protein 1 (Homo sapiens, UniProt Q9H0H5); test: blockers of MgcRacGAP-driven Rac1 GTP hydrolysis – biochemical, ADP Hunter fluorescence, primary and confirmatory, confirmation (AID 624330); type: functional
T5 sequence (Q9H0H5 whole entry): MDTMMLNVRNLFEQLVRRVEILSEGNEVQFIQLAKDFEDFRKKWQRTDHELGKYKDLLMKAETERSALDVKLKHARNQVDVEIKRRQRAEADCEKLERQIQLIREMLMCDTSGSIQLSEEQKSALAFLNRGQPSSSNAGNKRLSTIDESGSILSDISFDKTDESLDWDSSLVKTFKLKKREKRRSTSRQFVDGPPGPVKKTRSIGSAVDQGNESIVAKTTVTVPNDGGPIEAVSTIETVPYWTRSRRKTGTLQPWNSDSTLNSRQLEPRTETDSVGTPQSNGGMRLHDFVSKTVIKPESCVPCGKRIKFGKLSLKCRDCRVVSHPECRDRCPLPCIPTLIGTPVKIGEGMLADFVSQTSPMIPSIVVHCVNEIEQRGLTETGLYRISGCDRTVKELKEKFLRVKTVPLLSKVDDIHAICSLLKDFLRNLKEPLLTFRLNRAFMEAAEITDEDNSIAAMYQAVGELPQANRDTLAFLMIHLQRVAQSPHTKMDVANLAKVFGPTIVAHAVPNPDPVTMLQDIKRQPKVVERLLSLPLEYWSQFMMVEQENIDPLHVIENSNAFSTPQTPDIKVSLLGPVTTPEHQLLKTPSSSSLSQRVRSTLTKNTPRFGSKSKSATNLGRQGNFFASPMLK

[26] = Fluorescence-based cell-based high throughput dose response assay for inhibitors of the interaction of nucleotide-binding oligomerization domain containing 2 (NOD2) and the receptor-interacting serine-threonine kinase 2 (RIPK2).; type: functional; settings: Homo sapiens
[27] = molecular target: Beta Lactamase (Pseudomonas aeruginosa, UniProt Q932Y6); test: BLA reporter interference, concentration series – BLA reporter cells, FRET fluorescence, artefact control for NOD2-RIPK2 interaction inhibitor project, dose response (AID 651552); type: functional, cell-based
Sequence of Beta Lactamase (Q932Y6 whole entry): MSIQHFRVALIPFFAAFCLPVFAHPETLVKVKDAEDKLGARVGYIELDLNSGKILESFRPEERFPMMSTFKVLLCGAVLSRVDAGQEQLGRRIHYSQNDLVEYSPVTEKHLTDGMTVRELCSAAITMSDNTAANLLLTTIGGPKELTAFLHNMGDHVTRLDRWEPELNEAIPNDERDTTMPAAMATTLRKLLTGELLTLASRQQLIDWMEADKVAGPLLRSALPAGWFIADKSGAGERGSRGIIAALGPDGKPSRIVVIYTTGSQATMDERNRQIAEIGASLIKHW

[28] = molecular target: Heat shock protein HSP 90-alpha (Homo sapiens, UniProt P07900); type: functional, organism-based
[29] = molecular target: Cyclin-dependent kinase 5/CDK5 activator 1 (Homo sapiens, UniProt Q00535); test: blockade of human CDK5 activity – biochemical, cherry-picked samples, set 2, dose response (AID 504545)
Sequence of Cyclin-dependent kinase 5/CDK5 activator 1 (Q00535 whole entry): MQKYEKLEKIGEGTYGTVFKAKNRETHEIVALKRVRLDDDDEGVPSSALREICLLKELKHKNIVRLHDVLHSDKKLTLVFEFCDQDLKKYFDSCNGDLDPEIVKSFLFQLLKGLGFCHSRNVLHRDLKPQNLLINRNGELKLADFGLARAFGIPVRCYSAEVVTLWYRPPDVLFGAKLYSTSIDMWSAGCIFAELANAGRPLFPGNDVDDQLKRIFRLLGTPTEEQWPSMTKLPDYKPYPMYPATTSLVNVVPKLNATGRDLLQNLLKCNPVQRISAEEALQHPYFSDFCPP
Sequence of Cyclin-dependent kinase 5/CDK5 activator 1 (Q15078 whole entry, further chain): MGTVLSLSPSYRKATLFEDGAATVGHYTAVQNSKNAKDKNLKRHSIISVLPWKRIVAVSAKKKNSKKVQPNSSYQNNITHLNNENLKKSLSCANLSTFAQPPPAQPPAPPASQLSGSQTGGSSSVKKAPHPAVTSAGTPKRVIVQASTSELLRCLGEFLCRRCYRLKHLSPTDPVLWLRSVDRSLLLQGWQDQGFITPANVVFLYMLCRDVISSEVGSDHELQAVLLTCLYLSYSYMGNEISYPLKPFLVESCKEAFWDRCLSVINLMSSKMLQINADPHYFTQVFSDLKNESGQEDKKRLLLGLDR

[30] = molecular target: Nonstructural protein 1 (Influenza A virus, UniProt Q194T2); type: functional, Influenza A virus (A/California/07/2009(H1N1))
Sequence of Nonstructural protein 1 (Q194T2 whole entry): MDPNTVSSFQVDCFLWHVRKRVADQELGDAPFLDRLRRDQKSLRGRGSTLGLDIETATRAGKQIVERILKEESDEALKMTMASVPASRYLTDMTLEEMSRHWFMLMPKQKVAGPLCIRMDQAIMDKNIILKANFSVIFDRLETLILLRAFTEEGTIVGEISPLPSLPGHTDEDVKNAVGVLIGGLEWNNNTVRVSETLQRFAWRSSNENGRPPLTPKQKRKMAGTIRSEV

[31] = molecular target: Matrix metalloproteinase-14 (Homo sapiens, UniProt P50281); test: Dose Response confirmation of uHTS hits for a small molecule inhibitors of MT1-MMP activation in a fluorescence assay set 1.; type: functional
[32] = ADP-Glo luciferase signal interference – biochemical, luminescence, cherry-picked samples, set 2, artefact control for CDK5 inhibitor project, dose response (AID 504546); type: functional, cell-based
[33] = molecular target: Wee1-like protein kinase (Homo sapiens, UniProt P30291); test: HeLa cell cycle G2/M accumulation – FACS, mechanism study for Wee1 degradation inhibitor project, late-stage follow-up, panel member Wee1 Degradation (AID 2088)
[34] = molecular target: G2/mitotic-specific cyclin-B1 (Homo sapiens, UniProt P14635); test: HeLa cell cycle G2/M accumulation – FACS, mechanism study for Wee1 degradation inhibitor project, late-stage follow-up, panel member Cyclin B Degradation (AID 2088)
Sequence of G2/mitotic-specific cyclin-B1 (P14635 whole entry): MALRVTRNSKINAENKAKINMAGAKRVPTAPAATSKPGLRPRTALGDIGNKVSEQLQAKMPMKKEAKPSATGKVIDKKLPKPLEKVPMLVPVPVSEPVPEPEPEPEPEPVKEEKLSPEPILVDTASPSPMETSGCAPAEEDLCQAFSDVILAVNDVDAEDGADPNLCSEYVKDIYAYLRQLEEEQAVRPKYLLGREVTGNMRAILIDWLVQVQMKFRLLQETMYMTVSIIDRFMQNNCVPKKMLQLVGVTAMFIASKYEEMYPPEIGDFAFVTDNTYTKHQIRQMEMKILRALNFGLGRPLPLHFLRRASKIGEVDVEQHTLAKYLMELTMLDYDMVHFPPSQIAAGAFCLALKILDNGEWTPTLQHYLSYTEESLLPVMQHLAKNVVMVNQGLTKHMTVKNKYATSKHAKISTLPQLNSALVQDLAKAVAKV

SMILES: COc1ccc(N(CC(=O)NCCc2ccccc2)C(=O)CCl)cc1Cl
- AC50 [1]: 0.223 µM (active)
- AC50 [2]: 0.531 µM (active)
- AC50 [3]: 0.793 µM (active)
- AC50 [4]: 0.231 µM (active)

SMILES: CCOc1ccc2nc(N3CCCN(C(=O)Nc4ccccc4C)CC3)c(C#N)cc2c1
- IC50 [5]: 20.3 µM (not active)
- CC50 [6]: > 40 µM (active)
- IC50 [7]: > 59.7 µM (inactive)
- IC50 [8]: 38.7 µM (active)

SMILES: CCc1ccc(NC(=O)C(=O)NNC(=O)c2cccc(OC)c2)cc1
- IC50 [9]: > 75 µM (active)
- IC50 [10]: 10.5 µM (active)

SMILES: Cc1ccc(-n2[nH]c(C)c(/C=N/N3C(=O)c4cccc5cccc(c45)C3=O)c2=O)cc1
- EC50 [11]: > 31.5 µM (inactive)
- IC50 [12]: > 66.6 µM (inactive)
- IC50 [13]: 6.32 µM (active)
- IC50 [14]: > 32 µM
- EC50 [15]: 3.95 µM (active)

SMILES: CCOc1ccc(NS(=O)(=O)c2ccc(C(=O)NNC(=O)c3ccccc3O)cc2)cc1
- AC50 [16]: 11.1 µM (active)

SMILES: CCCCOc1ccc(NC(=O)C(=O)NCCCn2ccnc2)cc1
- EC50 [17]: 10.6 µM (active)
- IC50 [18]: > 80 µM (inactive)
- EC50 [19]: 13.9 µM (active)
- EC50 [20]: 18.5 µM (active)

SMILES: CCN(CC)c1ccc(C(=C2C=CC(=[N+](CC)CC)C=C2)c2ccc(N(CC)CC)cc2)cc1
- IC50 [21]: 44.7 µM (inactive)
- AC50 [22]: 1.01 µM (active)
- CC50 [23]: 4.15 µM (active)
- IC50 [24]: > 40.6 µM (inactive)
- IC50 [25]: 20.6 µM (active)
- IC50 [26]: 10.9 µM (inactive)
- IC50 [27]: 10.8 µM (inactive)
- AC50 [28]: 0.57 µM (active)
- AC50 [29]: 12.3 µM (active)
- IC50 [30]: 0.774 µM (active)
- IC50 [31]: > 80 µM (inactive)
- AC50 [32]: 31.9 µM (active)

SMILES: Cc1cc(O)nc(-n2nc(C)cc2NC(=O)Cc2ccc(F)cc2)n1
- EC50 [33]: > 49.7 µM (inactive)
- EC50 [34]: > 49.7 µM (inactive)
